Assays:
[1] = test system: primary rat brain endothelial cells (RBEC); experiment: Cellular uptake of PepH3 peptide in living RBECs (confocal microscopy, image analysis); assay type: cell-based; details: Quasar 570 labelled PepH3 100 nM, 37 °C, confocal image analysis normalized to nuclear intensity, n=10-25
Method: To visualize the cellular uptake of PepH3 peptide alone, the cells were cultured in Matrigel coated glass bottom culture dishes (diameter: 3.5 cm, Greiner Bio-One, Germany). Confluent monolayers were incubated with the peptide solution (100 nM) diluted in the culture medium of RBEC at 37 °C for 30 min, 5–24 h. For the staining of cell nuclei, Hoechst 33342 dye (1 µg/mL, 10 min) was used. After incubation the culture medium was removed and cells were washed with Ringer-HEPES buffer (118 mM NaCl, 4.8 mM KCl, 2.5 mM CaCl2, 1.2 mM MgSO4, 5.5 mM D-glucose, 20 mM HEPES, pH 7.4) supplemented with 1% PDS. For visualization of PepH3, living cells was imaged using Leica TCS SP5 confocal laser scanning microscope (Leica Microsystems, Germany).

[2] = test system: rat triple co-culture BBB model (RBEC, RPC, RAC); details: 10 nM, 30 min
[3] = cited from earlier work
Text: There was a fast clearanc ...

[4] = test system: primary rat brain endothelial cells (RBEC); experiment: Real-time impedance measurement of cellular toxicity on RBEC; assay type: cell-based; details: Quasar 570 labelled PepH3 1.875-120 µM, 24 h; impedance at 10 kHz; n=6-12
Method: Kinetics of the effect of PepH3 peptide, PepH3-tagged and non-tagged NPs on RBEC cells was monitored by impedance measurement at 10 kHz (RTCA-SP instrument; ACEA Biosciences, USA). Impedance measurement is a label-free, real time, non- invasive method, and correlates linearly with adherence, growth, number, and viability of cells. For background measurements 50 µL cell culture medium was added to the wells, then cells were seeded at a density of 6 × 10^3 cells/well to collagen type IV (100 µg/mL) and fibronectin (25 µg/mL) coated 96-well plates with integrated gold electrodes (E-plate 96, ACEA Biosciences, USA). Cells were cultured for 4 days and monitored every 5 min until the end of experiments. At the beginning of plateau phase of growth, cells were treated with PepH3 (1.875-120 µM) and PepH3-tagged and non-tagged NPs (0.1-3.0 mg/mL) for 24 h. Cell index was defined as Rn-Rb at each time point of measurement, where Rn is the cell-electrode impedance of the well when it contains cells and Rb is the background impedance of the well with the medium alone.

## Q-AGILKRW-NH2 [PepH3, cationic 7-residue peptide (AGILKRW), BBB peptide shuttle derived from Dengue virus type-2 capsid protein; tested Quasar 570 labelled]
[1]
  Peptide internalization after 5 h compared to the 30 min group: 1.9 fold
  Peptide internalization after 24 h compared to the 30 min group: 6 fold
[2]
  Papp of PepH3 relative to transcellular BBB marker albumin (EBA): 71 times
[3]; biodistribution profile compared to FC5
  Accumulation in liver, lung and kidney in vivo: low accumulation
[3]; radiolabeled PepH3 peptide derivatives, biodistribution
  Brain uptake in vivo: high brain uptake
[4]
  Effect on impedance (viability) of RBEC cell layers: good cell viability

— paper PMC11959756, “PepH3-modified nanocarriers for delivery of therapeutics across the blood-brain barrier” (Fluids and Barriers of the CNS, 2025)
